IC50 data for 25 compounds are collected here from patent publication US5696108A, “Protein kinase C inhibitors” (Eli Lilly and Company, priority 1996, dated 1997).

Holding throughout (conditions): Table 1
One assay has as its target PKC-α (Homo sapiens, UniProt P17252). The assay is described as follows: PKC Enzyme Assay, alpha isozyme. Format: biochemical. The method, then: (§1) PKC enzymes=alpha, beta I, beta II, gamma, delta, epsilon, eta and zeta.
(§2) Assay components in a total volume of 250 μL are as follows:
(§3) For all the enzymes either histone type HL (Worthington) or myelin basic protein is used as substrate. The assay is started by addition of protein kinase C enzyme incubated at 30° C. for 10 minutes and stopped by adding 0.5 mL of cold trichloroacetic acid (Amresco) followed by 100 μL of 1 mg/mL bovine serum albumin (Sigma, St. Louis, Mo.). The precipitate is collected by vacuum filtration on glass fiber filters employing a TOMTEC™ filtration system and quantified by counting in a beta scintillation counter.

A further assay concerns the target PKC-β1 (Homo sapiens, UniProt P05771). As to the kind of experiment: PKC Enzyme Assay, beta-1 isozyme. It is filed as biochemical. The method, then:
as §1, §2, §3

Another assay deals with PKC-β2 (Homo sapiens, UniProt P05771). The assay is described as follows: PKC Enzyme Assay, beta-2 isozyme. It is filed as biochemical. The protocol: as §1, §2, §3
Assay [1] deals with T1, cAMP-dependent kinase catalytic subunit (Bos taurus, UniProt P00517).
T1 construct: purchased Sigma, St. Louis, Mo; host or cells: bovine heart
As to the kind of experiment: cAMP-Dependent protein Kinase Catalytic Subunit Assay. Format: biochemical, bovine. The protocol:
cAMP-Dependent protein Kinase Catalytic Subunit Assay (PEA) The Assay components are in a total volume of 250 μL: 20 mM HEPES (Sigma, St. Louis, Mo.) buffer pH 7.5, 200 μg/mL histone type HL (Worthington), 10 mM magnesium chloride (Sigma, St. […] The reaction is initiated by addition of bovine heart cAMP-dependent kinase catalytic subunit (Sigma, St. Louis, Mo.), incubated to 30° C. for 10 minutes and stopped by adding 0.5 mL ice cold Trichloroacetic acid (Amresco) followed by 100 μL of 1 mg/mL bovine serum albumin (Sigma). The precipitate is collected by vacuum filtrated on glass fiber filters employing a TOMTEC™ and quantified by counting in a beta scintillation counter. This assay is done identical to the protein kinase C (PKC) enzyme assay except that no phospholipids or diacylglycerol are employed in the assay and the histone substrate is specific for the cAMP-dependent catalytic subunit enzyme.

The target of assay [2] is calcium calmodulin dependent protein kinase. As to the kind of experiment: Calcium Calmodulin Dependent Protein Kinase Assay (CAM). It is filed as biochemical, rat. The method, then:
Calcium Calmodulin Dependent Protein Kinase Assay (CAM)
The reaction is initiated by the addition of calcium calmodulin dependent protein kinase (isolated from rat brain homogenate), incubated at room temperature for 10 minutes and stopped by adding 0.5 mL ice cold trichloroacetic acid (Amresco) followed by 100 μL of 1 mg/mL bovine serum albumin (Sigma, St. Louis, Mo.). The precipitate is collected by vacuum filtration on glass fiber filters and quantified by counting in a beta scintillation counter.
25 μL calmodulin (250 μg/mL)
10 μL DMSO or DMSO/inhibitor

Another assay has as its target T2, casein protein kinase II (Rattus norvegicus, UniProt P19139).
T2 construct: isolated from rat brain homogenate; from tissue; host or cells: rat brain homogenate
As to the kind of experiment: Casein Protein Kinase II Assay (CK-II). It is filed as biochemical. The protocol: Casein Protein Kinase II Assay (CK-II)
The Casein Protein Kinase II Assay is described in Neurochem. […] The assay components are in a total volume of 250 μL: 20 mM Tris-HCl, pH 7.5, 5 mM sodium fluoride, 50 mg/mL Casein (Sigma, St. Louis, Mo.), 10 mM magnesium chloride (Sigma, St. Louis, Mo.), 10 μL DMSO or DMSO/inhibitor and 30 μm (gamma-32P) ATP (DuPont). Initiation of the reaction is performed by addition of casein protein kinase II (isolated from rat brain homogenate), incubated at room temperature for 10 minutes and stopped by the addition of 0.5 mL ice cold Trichloroacetic acid (Amresco) followed by 100 μL of 1 mg/mL bovine serum albumin (Sigma, St. Louis, Mo.). The precipitate is collected by vacuum filtration on glass fiber filters and quantified by counting in a beta scintillation counter.
Assay components in order of addition
10 μL or DMSO or DMSO/inhibitor
25 μL of AT32P in 300 μM magnesium chloride
40 μL of enzyme (undiluted)
Buffer prepared as follows:
(Final volume=3.5 mL: amount of 20 assays)

The target in another assay is T3, src (Homo sapiens, UniProt P12931).
T3 construct: purchased Onogene Science, Inc. PK02 and PK03
The assay is described as follows: Protein Tyrosine Kinase Assay (src). Format: biochemical. The protocol:
Protein Tyrosine Kinase Assay (src)
The Assay components are the following:
4 μL DMSO or DMSO/inhibitor

Where a name gives a salt, the structure may show the parent alone. Bounds are passed on as bounds.

Chain of PKC-β2 (P05771 1-673 isoform P05771-2): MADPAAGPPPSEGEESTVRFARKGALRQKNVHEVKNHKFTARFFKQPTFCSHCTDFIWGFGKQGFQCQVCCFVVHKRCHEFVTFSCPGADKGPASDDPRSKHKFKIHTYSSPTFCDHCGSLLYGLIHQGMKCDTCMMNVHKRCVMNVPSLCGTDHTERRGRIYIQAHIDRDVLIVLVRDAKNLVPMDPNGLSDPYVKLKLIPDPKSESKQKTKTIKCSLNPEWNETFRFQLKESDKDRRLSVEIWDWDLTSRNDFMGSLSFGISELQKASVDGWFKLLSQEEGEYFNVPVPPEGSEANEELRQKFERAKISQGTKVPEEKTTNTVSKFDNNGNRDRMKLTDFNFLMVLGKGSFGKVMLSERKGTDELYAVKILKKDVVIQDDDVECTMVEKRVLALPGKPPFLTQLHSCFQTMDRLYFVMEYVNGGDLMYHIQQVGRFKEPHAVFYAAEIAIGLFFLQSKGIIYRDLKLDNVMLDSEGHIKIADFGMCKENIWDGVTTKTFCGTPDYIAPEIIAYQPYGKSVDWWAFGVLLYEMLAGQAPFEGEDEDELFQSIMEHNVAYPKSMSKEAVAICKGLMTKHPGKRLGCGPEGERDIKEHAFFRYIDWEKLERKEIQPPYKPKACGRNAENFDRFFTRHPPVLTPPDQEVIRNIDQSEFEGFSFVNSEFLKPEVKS
Chain of PKC-β1 (P05771 whole entry): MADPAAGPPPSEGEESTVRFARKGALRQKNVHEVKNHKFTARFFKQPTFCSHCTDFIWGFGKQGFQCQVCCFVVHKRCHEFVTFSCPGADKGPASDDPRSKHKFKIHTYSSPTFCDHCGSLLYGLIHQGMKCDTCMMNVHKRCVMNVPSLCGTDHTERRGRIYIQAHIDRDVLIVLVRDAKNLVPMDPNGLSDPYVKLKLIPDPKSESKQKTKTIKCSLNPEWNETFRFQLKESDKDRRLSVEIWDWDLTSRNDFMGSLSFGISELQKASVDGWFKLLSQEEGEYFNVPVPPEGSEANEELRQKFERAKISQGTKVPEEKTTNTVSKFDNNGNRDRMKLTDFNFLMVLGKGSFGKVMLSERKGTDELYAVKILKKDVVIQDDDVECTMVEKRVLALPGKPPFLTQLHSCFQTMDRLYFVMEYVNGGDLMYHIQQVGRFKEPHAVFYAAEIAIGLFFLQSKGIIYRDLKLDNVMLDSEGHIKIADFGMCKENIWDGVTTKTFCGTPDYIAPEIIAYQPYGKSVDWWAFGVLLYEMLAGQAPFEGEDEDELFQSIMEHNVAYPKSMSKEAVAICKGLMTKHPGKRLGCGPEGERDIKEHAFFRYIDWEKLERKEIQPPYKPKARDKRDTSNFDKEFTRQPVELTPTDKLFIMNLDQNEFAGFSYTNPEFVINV
T2 sequence (P19139 whole entry): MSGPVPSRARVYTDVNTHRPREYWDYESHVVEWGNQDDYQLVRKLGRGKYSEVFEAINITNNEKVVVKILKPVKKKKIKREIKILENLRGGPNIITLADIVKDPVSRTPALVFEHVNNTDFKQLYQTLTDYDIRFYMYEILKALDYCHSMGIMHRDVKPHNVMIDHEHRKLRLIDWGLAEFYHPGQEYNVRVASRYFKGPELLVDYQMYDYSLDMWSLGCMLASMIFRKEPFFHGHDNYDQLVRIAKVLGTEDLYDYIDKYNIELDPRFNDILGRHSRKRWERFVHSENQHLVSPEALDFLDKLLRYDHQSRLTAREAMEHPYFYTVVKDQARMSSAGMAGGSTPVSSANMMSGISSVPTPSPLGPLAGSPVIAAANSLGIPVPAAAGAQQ
T2 sequence (P67874 2-215 partner limits assumed): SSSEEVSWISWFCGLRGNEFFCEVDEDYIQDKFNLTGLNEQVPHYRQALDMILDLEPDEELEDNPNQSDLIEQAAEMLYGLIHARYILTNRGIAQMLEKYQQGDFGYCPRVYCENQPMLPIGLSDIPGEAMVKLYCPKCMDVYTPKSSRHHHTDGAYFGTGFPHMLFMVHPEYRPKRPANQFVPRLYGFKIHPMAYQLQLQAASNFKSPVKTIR
T3 sequence (P12931 whole entry, species assumed): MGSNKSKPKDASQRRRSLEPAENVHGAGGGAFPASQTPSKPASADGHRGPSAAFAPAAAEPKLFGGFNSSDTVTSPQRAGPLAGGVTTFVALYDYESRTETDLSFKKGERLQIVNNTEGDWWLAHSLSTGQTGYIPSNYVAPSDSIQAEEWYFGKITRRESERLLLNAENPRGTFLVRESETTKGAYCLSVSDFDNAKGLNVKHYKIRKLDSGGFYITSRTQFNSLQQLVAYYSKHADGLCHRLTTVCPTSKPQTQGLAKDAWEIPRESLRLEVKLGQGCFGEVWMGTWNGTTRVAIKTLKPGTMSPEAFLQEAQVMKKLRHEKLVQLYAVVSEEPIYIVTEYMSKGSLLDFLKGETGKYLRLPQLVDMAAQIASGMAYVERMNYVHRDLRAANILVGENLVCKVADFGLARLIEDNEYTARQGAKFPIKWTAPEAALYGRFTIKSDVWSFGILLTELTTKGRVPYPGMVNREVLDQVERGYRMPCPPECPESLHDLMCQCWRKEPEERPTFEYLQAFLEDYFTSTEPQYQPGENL

As to `O=C1NC(=O)C2=C1c1cn(c3ccccc13)CCOCC(CN1CCCC1)CCn1cc2c2ccccc21` (stereo not drawn) [Example 7, 3,4-[(N,N'-1,1'-(2"-ethoxy-(3"'((O)-methylene)-4"'-(N-pyrrolidino)-butane)-bis-(3,3'-indolyl)]-1(H)-pyrrole-2,5-dione hydrochloride salt], the concentration for half-maximal inhibition (IC50) is greater than 5000 nM on PKC-α, 150 nM at PKC-β1 and 180 nM against PKC-β2.

Turning to `O=C1NC(=O)C2=C1c1cn(c3ccccc13)CCOCC(CO)CCn1cc2c2ccccc21` (stereo not drawn) [Example 6], the IC50 amounted to 4200 nM against PKC-α, 43 nM at PKC-β1 and 35 nM at PKC-β2.

As to `CN(C)CC1CCn2cc(c3ccccc32)C2=C(C(=O)NC2=O)c2cn(c3ccccc23)CCOC1` (stereo not drawn) [Example 8, 3,4-[(N,N'-1,1'-(2"-ethoxy-(3"'((O)-methylene)-4"'-(N,N-dimethylamino)-butane)-bis-(3,3'-indolyl)]-1(H)-pyrrole-2,5-dione hydrochloride salt], the IC50 against PKC-α was found to be 2500 nM; on PKC-β1, 37 nM; on PKC-β2 it was 32 nM.

With `O=C1NC(=O)C2=C1c1cn(c3ccccc13)CCCCCCCCn1cc2c2ccccc21` [Example 44], the figures for the IC50 against PKC-α, against PKC-β1 and against PKC-β2 were greater than 100000 nM, 2000 nM and 2000 nM, respectively.

`O=C1NC(=O)C2=C1c1cn(c3ccccc13)CCCOC(CN1CCCC1)CCn1cc2c2ccccc21` (stereo not drawn) [Example 12]: the 50% inhibitory concentration (IC50) at PKC-α was 19000 nM; against PKC-β1, 600 nM; on PKC-β2 it was 500 nM; in assay [1] it was greater than 100000 nM; in assay [2], 93000 nM; against casein protein kinase II, greater than 100000 nM.

As for `CN(C)C[C@H]1CCCn2cc(c3ccccc32)C2=C(C(=O)NC2=O)c2cn(c3ccccc23)CC1` [Example 40s, (S)-3,4-[(N,N'-1,1'-(3"-(N,N-dimethylamine)methylene)-hexane)-bis-(3,3'-indolyl)]-1H-pyrrole-2,5-dione hydrochloride salt], the IC50 on PKC-α was 400 nM; in assay [1], greater than 100000 nM; in assay [2], 41000 nM; against casein protein kinase II it was greater than 100000 nM.

`O=C1NC(=O)C2=C1c1cn(c3ccccc13)CCC(CO)CCn1cc2c2ccccc21` [Example 51, 3,4-[(N,N'-1,1'-(3"-(hydroxy)methylene)pentan)-bis-(3,3'-indolyl)]-1(H)-pyrrole-2,5-dione]: the IC50 against PKC-α amounted to 49000 nM; against PKC-β1 it was 500 nM; on PKC-β2, 500 nM.

For the compound `CN1CCN(C[C@@H]2CCn3cc(c4ccccc43)C3=C(C(=O)NC3=O)c3cn(c4ccccc34)CCO2)CC1` [Example 23s], the 50% inhibitory concentration (IC50) worked out at 1800 nM on PKC-α, 300 nM against PKC-β1 and 240 nM against PKC-β2.

With `O=C1NC(=O)C2=C1c1cn(c3ccccc13)CCO[C@H](CNCc1ccccc1)CCn1cc2c2ccccc21` [Example 18s], the IC50 at PKC-α is 6400 nM; on PKC-β1, 380 nM; against PKC-β2, 300 nM; in assay [1] it was greater than 100000 nM; at casein protein kinase II, greater than 100000 nM.

Consider `CN(C)C[C@H]1CCn2cc(c3ccccc32)C2=C(C(=O)NC2=O)c2cn(c3ccccc23)CCO1` [Example 5r], for which the IC50 in assay [1] was greater than 100000 nM; in assay [2], 5000 nM; at casein protein kinase II, greater than 100000 nM.

As for `O=C1NC(=O)C2=C1c1cn(c3ccccc13)CCCOC(CNCc1ccccc1)CCn1cc2c2ccccc21` (stereo not drawn) [Example 13], the results for the half-inhibitory concentration (IC50) at PKC-α, at PKC-β1 and against PKC-β2 were greater than 5000 nM, 1900 nM and 940 nM, respectively.

On to `O=C1NC(=O)C2=C1c1cn(c3ccccc13)CCOCCn1cc2c2ccccc21` [Example 1, 3,4-[(N,N'-1,1'-ethoxyethyl)-bis-(3,3'-indolyl)]-1H-pyrrole-2,5-dione], for which the IC50 on PKC-α is 1000 nM; against PKC-β1, 50 nM; against PKC-β2 it was 40 nM; against casein protein kinase II, greater than 100000 nM.

Regarding `CN(C)C[C@@H]1CCn2cc(c3ccccc32)C2=C(C(=O)NC2=O)c2cn(c3ccccc23)CCO1` [Example 5s], the half-inhibitory concentration (IC50) in assay [1] is greater than 100000 nM; in assay [2] it was 8000 nM; against casein protein kinase II, greater than 100000 nM.

As for `O=C1NC(=O)C2=C1c1cn(c3ccccc13)CCC[C@@H](CO)CCn1cc2c2ccccc21` [Example 31r], the half-maximal inhibitory concentration (IC50) came out at 240 nM on PKC-α, 19 nM against PKC-β1 and 8 nM against PKC-β2.

For the compound `O=C1NC(=O)C2=C1c1cn(c3ccccc13)CCCOC(CNS(=O)(=O)c1ccccc1)CCn1cc2c2ccccc21` (stereo not drawn) [Example 15], the IC50 is greater than 5000 nM against PKC-α, 2900 nM against PKC-β1 and 830 nM on PKC-β2.

For `O=C1NC(=O)C2=C1c1cn(c3ccccc13)CCO[C@@H](CNCc1ccccc1)CCn1cc2c2ccccc21` [Example 18r], the 50% inhibitory concentration (IC50) at PKC-α is 3400 nM; against PKC-β1, 83 nM; against PKC-β2, 87 nM; in assay [1], greater than 100000 nM; in assay [2], 8800 nM; against casein protein kinase II, greater than 100000 nM.

On to `O=C1NC(=O)C2=C1c1cn(c3ccccc13)CCO[C@H](CN1CCOCC1)CCn1cc2c2ccccc21` [Example 24s], for which the half-maximal inhibitory concentration (IC50) against PKC-α came out at 3500 nM; at PKC-β1, 490 nM; on PKC-β2 it was 380 nM.

In the case of `O=C(OCc1ccccc1)OCC1CCCn2cc(c3ccccc32)C2=C(C(=O)NC2=O)c2cn(c3ccccc23)CC1` (stereo not drawn) [Example 29, 3,4-[(N,N'-1,1'-(3"-(benzylcarbonate)methylene)hexane)-bis-(3,3'-indolyl)]-1H-pyrrole-2,5-dione], the IC50 on PKC-α is greater than 100000 nM; against PKC-β1, 700 nM; against PKC-β2, 800 nM.

For `O=C1NC(=O)C2=C1c1cn(c3ccccc13)CCOc1ccccc1Cn1cc2c2ccccc21` [Example 27, 3,4-[(N,N'-1,1'-(2"-ethoxy)-benzyl)-bis-(3,3'-indolyl)]-1(H) -pyrrole-2,5-dione hydrochloride], the half-maximal inhibitory concentration (IC50) at PKC-α stood at 2200 nM; at PKC-β1, 49 nM; at PKC-β2, 26 nM.

With `O=C1NC(=O)C2=C1c1cn(c3ccccc13)CCOC(CO)CCn1cc2c2ccccc21` (stereo not drawn) [Example 3], the IC50 against src is greater than 100000 nM.

`CN(C)CC1CCn2cc(c3ccccc32)C2=C(C(=O)NC2=O)c2cn(c3ccccc23)CC1` [Example 54, 3,4-[(N,N'-1,1'-(3"-(N,N-(dimethylamino)methylene)pentanyl)-bis-(3,3'-indolyl)]-1(H)-pyrrole-2,5-dione hydrochloride]: the IC50 against PKC-α was 160 nM; on PKC-β1, 5 nM; against PKC-β2 it was 4 nM.

Consider `O=C1NC(=O)C2=C1c1cn(c3ccccc13)CCO[C@H](CNS(=O)(=O)c1ccccc1)CCn1cc2c2ccccc21` [Example 21s], for which the half-maximal inhibitory concentration (IC50) against PKC-β1 was found to be 170 nM; against PKC-β2, 44 nM.

For the compound `O=C(NC[C@H]1CCn2cc(c3ccccc32)C2=C(C(=O)NC2=O)c2cn(c3ccccc23)CCO1)OCc1ccccc1` [Example 25r], the IC50 on PKC-α is 94000 nM; at PKC-β1, 43 nM; against PKC-β2 it was 120 nM; in assay [1] it was greater than 100000 nM; in assay [2] it was 22000 nM; on casein protein kinase II it was greater than 100000 nM.

Turning to `O=C(NCC1CCn2cc(c3ccccc32)C2=C(C(=O)NC2=O)c2cn(c3ccccc23)CCCO1)OCc1ccccc1` (stereo not drawn) [Example 16], the IC50 on PKC-α is greater than 5000 nM; on PKC-β1 it was 3200 nM; against PKC-β2 it was 2300 nM.

Turning to `O=C1NC(=O)C2=C1c1cn(c3ccccc13)CCCOC(CNCc1ccccc1)CCn1cc2c2ccccc21` (stereo not drawn) [Example 55], the values for the IC50 against PKC-β1 and at PKC-β2 were 410 nM and 380 nM, respectively.
